Test results published in US7732478B2, “Methods for facilitating metabolic control” (The Trustees of Columbia University in The City of New York, priority 2005, dated 2010).

What was measured:
serum glucose = experiment: Serum glucose levels as indicator of metabolic control; assay type: in vivo, human; settings: Ketorolac treatment, Example 11
Protocol: (§1) Glycated hemoglobin (HbA1c) levels were measured from freshly drawn anticoagulated whole blood using an automated affinity chromatography system (BioRad Micromat II, Hercules, Calif.). Serum glucose was determined by the glucose oxidase method (Roche Diagnostics, Basel, CH). […] The study is performed as described in example 8. HbA1c levels and serum glucose levels, which are used as indicators of metabolic control, are measured as described in example 6.

HbA1c = HbA1c levels as indicator of metabolic control; assay type: in vivo, human; settings: Ketorolac treatment, Example 11
Protocol: as §1

IL-1β in GCF [1] = settings: used as an oral rinse; cited from earlier work
circulating TNF = experiment: Circulating TNF level (blood TNF alpha immunoassay) after ketorolac oral rinse; assay type: in vivo, human; settings: oral rinse containing 0.1% Ketorolac twice daily for 6 months; type 2 diabetes and chronic periodontitis subjects
Protocol: Subjects are selected and divided into different groups as described in Examples 1 and 2. An oral rinse containing 0.1% Ketorolac was administered twice daily for 6 months to reduce the level of IL-1β in GCF in the subjects (see, Cavanaugh et al., Coordinate production of PGE2 and IL-1 beta in the gingival crevicular fluid of adults with periodontitis: its relationship to alveolar bone loss and disruption by twice daily treatment with ketorolac tromethamine oral rinse. J. Periodontal Res. 33:75-82, 1998). GCF samples are collected following the procedures of example 3 and the level of IL-1β in GCF is determined as described in example 5. Circulating TNF level is determined by measuring blood TNF level using the TNF alpha immunoassay kit (Assay Designs Inc., Ann Arbor, Mich.) following the manufacturer's instructions.

IL-1β in GCF [2] = experiment: Level of IL-1β in gingival crevicular fluid (sandwich ELISA) after ketorolac oral rinse; assay type: in vivo, human; settings: Ketorolac treatment, Example 11
Source text: The clinical evaluation was preceded by collection of GCF, as previously described (Lamster et al., A comparison of 4 methods of data presentation for lysosomal enzyme activity in gingival crevicular fluid. J. Clin. Periodontol., 15:347-52, 1988; Lamster et al., Correlation analysis for clinical and gingival crevicular fluid parameters at anatomically related gingival sites. J. Clin. Periodontol., 18:272-77, 1991), from the mesiolingual and mesiobuccal surfaces of the first molar tooth in each quadrant. Where the first molar was absent, the second molar was sampled. If both the first and second molar were missing, the second premolar was sampled. If there were no posterior teeth in a quadrant, no sample was taken from that quadrant.
Briefly, teeth were air-dried and isolated with cotton rolls, supragingival plaque was gently removed, and GCF was sampled with precut methylcellulose filter paper strips for 30 sec. Strips were measured for fluid volume with a calibrated Periotron 6000 (Interstate Drug Exchange, Amityville, N.Y.), then removed to separate microcentrifuge tubes containing 50 μl of phosphate-buffered saline (Tween 20). […] Following elution, each GCF sample was analyzed separately.
GCF samples were analyzed for IL-1β using a commercially-available enzyme-linked immunosorbant assay, Multikine Kit (Cistron Biotechnology, Pine Brook, N.J.). […]

[3] = system: circulating levels of TNF-α, and IL-6; settings: infusion of glutathione; healthy and impaired glucose tolerance individuals; cited from earlier work

| SMILES | serum glucose levels (serum glucose) | HbA1c levels (HbA1c) | GCF IL-1β in the oral cavity (IL-1β in GCF [1]) | level of serum TNF (circulating TNF) | levels of IL-1β in GCF (IL-1β in GCF [2]) | circulating cytokines following a glucose bolus administration [3] |
| --- | --- | --- | --- | --- | --- | --- |
| O=C(c1ccccc1)c1ccc2n1CCC2C(=O)O (stereo not drawn) [Ketorolac] | decline | decline of HbA1c levels | reduce GCF IL-1β | significant reduction | reducing the levels of IL-1β in GCF | – |
| N[C@@H](CCC(=O)N[C@@H](CS)C(=O)NCC(=O)O)C(=O)O [glutathione] | – | – | – | – | – | no increase of cytokines |
